According to publication PMC6511888, “Synthesis, Biological Evaluation, and Molecular Modeling Studies of New Thiadiazole Derivatives as Potent P2X7 Receptor Inhibitors” (Frontiers in Chemistry, 2019):
≈ marks a conversion by molar mass, not a printed value. Where two headings read alike, the source gives them in different places.

How the values were obtained:
human P2X7R = target: T1, human P2X7R (Homo sapiens, UniProt Q99572); test: Dye uptake assay (ethidium bromide) in HEK-293 cells transfected with hP2X7R; format: cell-based; details: for IC50: ethidium uptake assay, HEK-293 cells transfected with human P2X7R, mean ± SD
T1 construct: expressed in transfected cells; host or cells: HEK-293
T1 sequence (Q99572 1-595): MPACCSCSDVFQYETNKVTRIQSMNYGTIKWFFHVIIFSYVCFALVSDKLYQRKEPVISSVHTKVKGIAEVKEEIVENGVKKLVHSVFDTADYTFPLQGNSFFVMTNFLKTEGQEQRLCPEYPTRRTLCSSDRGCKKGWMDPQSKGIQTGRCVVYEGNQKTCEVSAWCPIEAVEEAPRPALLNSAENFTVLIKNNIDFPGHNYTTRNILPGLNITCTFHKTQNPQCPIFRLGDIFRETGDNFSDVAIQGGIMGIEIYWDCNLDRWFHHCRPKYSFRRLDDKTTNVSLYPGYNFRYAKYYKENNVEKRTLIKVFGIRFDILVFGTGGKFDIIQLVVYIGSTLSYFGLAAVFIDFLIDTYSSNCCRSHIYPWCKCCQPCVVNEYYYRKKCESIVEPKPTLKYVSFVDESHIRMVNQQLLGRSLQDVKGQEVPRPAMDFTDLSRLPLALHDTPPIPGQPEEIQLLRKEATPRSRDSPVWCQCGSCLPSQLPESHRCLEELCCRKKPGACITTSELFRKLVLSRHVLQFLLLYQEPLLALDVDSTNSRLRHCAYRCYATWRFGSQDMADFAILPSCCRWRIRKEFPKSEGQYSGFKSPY
Description: HEK-293 cells expressing human P2X7R were maintained in Dulbecco's modified Eagle's medium (DMEM; Sigma-Aldrich) supplemented with 10% fetal bovine serum (FBS; Prolab, Br) and anti-biotics (50 U/ml penicillin and […] streptomycin) in a humidified 5% CO2 atmosphere at 37°C (Faria et al., [2018]). A total of 5 × 10^5 cells were plated at 37°C in a humidified 5% CO2 atmosphere for 24 h in a 96-well plate for dye uptake or IL-1β release assays.
HEK-293 cells transfected with hP2X7R and mouse peritoneal macrophages were plated at 2.5 × 10^6 or 5 × 10^5 cells/ml, respectively, in 96-well culture plates containing DMEM with 10% FBS and anti-biotics (50 U/ml penicillin and […] streptomycin) in a humidified 5% CO2 atmosphere at 37°C for 24 h (Faria et al., [2018]).
P2X7R antagonist and thiadiazole analogs (1 nM to 0.5 mM) were incubated for 5 min before ATP (5 mM) treatment for 20 min. In the last 5 min of ATP incubation, propidium iodide for macrophages (PI; 750 nM) or ethidium bromide (EB; 25 μM) for HEK-293 cells was added to all wells. PI dye was excited at a wavelength of 530 nm, and its fluorescence emission was read at a wavelength of 590 nm using an M5 plate reader (Molecular Devices). EB dye was excited at a wavelength of 530 nm and emitted at a wavelength of 620 nm.

[1] = test system: P2X7R-mediated IL-1β release; test: ATP-induced IL-1β release (ELISA) in differentiated THP-1 cells; format: cell-based, human
Description: P2X7R-mediated IL-1β release was obtained from differentiated THP-1 cells stimulated with lipopolysaccharide (LPS) before ATP addition. […] THP-1 cells were differentiated with 500 ng/ml phorbol 12-myristate 13-acetate (PMA) and 10 ng/ml IFN-γ cotreatment for 24 h. These cells were activated with 25 ng/ml LPS for 4 h. […] P2X7R antagonists (BBG and A740003) and thiadiazole analogs were added 30 min before the ATP stimulus. The supernatants were collected, centrifuged (1,000 rpm for 5 min at 4°C), and stored at −70°C after LPS incubation. IL-1β was quantified using a standard kit (ABCAM, Cambridge).

[2] = pH-dependent kinetic solubility; format: physicochemical; details: kinetic from dmso stock
Description: DMSO stock solutions (5 μl) were added into a 995-μl acetonitrile/buffer (1:1) mixture to prepare the calibration standard solutions. The reaction samples were centrifuged (10,000 rpm, 10 min, 25°C) and diluted 1:1 with acetonitrile (Faria et al., [2018]).

[3] = Stability in mouse liver microsomes; format: in vitro ADME; details: male, pH 7.4, read-out: LM stability mouse (CLint)
Description: Thiadiazole 9f stability was evaluated in liver microsomes from male mice and humans according to Faria et al. in 2018 (Faria et al., [2018]). Both solutions contained a final protein concentration of 0.5 mg/ml (0.1 M phosphate buffer) at pH 7.4. Microsomes were preincubated with 9f (1 μM) and DMSO ([…]) at 37°C before NADPH (1 mM) addition. A control for the reaction was a buffer containing 0.1 M phosphate at pH 7.4 in a final volume of 50 μl. Diazepam and verapamil were used as positive controls for mice and humans, respectively. Both types of microsomes were treated with 9f for 0, 5, 15, 30, and 45 min and the negative control [minus Nicotinamide adenine dinucleotide phosphate (NADPH)] for 45 min. To stop the reactions, methanol (50 μl) was added at the appropriate time points, and the samples were centrifuged (1,640 × g) for 20 min at 4°C to […] protein precipitation.
In vitro intrinsic clearance (CLint mic) for the metabolism of 9f in mouse and human liver microsomes was calculated using the equations below:
Half-life (t1/2) (minutes) = 0.693/k (1)
V(μL/mg) = volume of the incubation solution (μl)/protein in the incubation solution (mg) (2)
Intrinsic clearance (CLint) (μl/minutes/mg protein) = V × 0.693/t1/2 (3) according to the manufacturer's instructions.

Caco-2 cell permeability = format: in vitro ADME; set-up: Papp at 60 min: dose or concentration left out as unconfirmed; details: human, Caco-2, pH 7.4; apical to basolateral (A - B); mean ± standard error of three experiments; read-out: Caco-2 apparent permeability (Papp)
Description: Corning® Costar® Transwell plates (Sigma-Aldrich, St. Louis, MO, USA) were used for seeding Caco-2 cells at 3 × 10^5 cells/well bathed with DMEM supplemented with 10% FSB according to Faria and collaborator in 2018 (Faria et al., [2018]). This culture was maintained for up to 21 days in a humidified incubator at 37°C and 5% CO2. Thiadiazole analog, vinblastine (poor permeability control), and propranolol (high permeability control) stock solutions, all at a concentration of 100 mM, were prepared in Hanks' balanced salt solution (HBSS) containing 25 mM HEPES at pH 7.4 with 0.5% (v/v) DMSO. Transport buffer (0.3 ml) was added to each well to equilibrate the cells with the transport buffer. A 24-well enhanced recovery plate containing 1 ml of transport buffer (pH 7.4) was substituted for the feeder tray. The transport buffer in the apical wells was removed, and 0.3 ml of a solution containing thiadiazoles 9b, 9c, 9f, or 11c; vinblastine; or propranolol was added. Then, the cells were replaced for incubation for 60 min. Lucifer yellow concentrations in the donor and acceptor wells were measured in the last of this incubation. Lucifer yellow was measured using an M5 plate reader ([…]) at an excitation wavelength of 485 nm and an emission wavelength of 530 nm.

[4] = ATP-induced IL-1β release, LPS/IFN-differentiated human THP-1 cells, read-out: THP-1 cells IC50
[5] = buffer, aqueous buffer, acidic pH values
[6] = phosphate buffer, pH 7.4, aqueous buffer
[7] = dye uptake, HEK-293-transfected cells

IC50 (human P2X7R) [µM]	IC50 [1, 4] [µM]	solubility at 2 h [2, 5] [µM]	solubility at 2 h ([2]; buffer, pH 10, aqueous buffer) [µM]	solubility at 2 h [2, 6] [µM]	microsomal CLint at 1 μM [3] [µL/min/mg]	Papp at 60 min (Caco-2 cell permeability) [×10⁻⁶ cm/s]	Potency relative to A740003 (times greater) (human P2X7R; [7])	Potency relative to BBG (times greater) (human P2X7R; [7])	IC50 ([1]; Homo sapiens, THP-1 cells, read-out: IC50, IL-1β release) [µM]	SMILES	Potency relative to BBG (times more potent) ([1]; IL-1β release, THP-1 cells)	Potency relative to A740003 ([1]; IL-1β release, THP-1 cells) [times]
0.041 ± 0.008	0.298 ± 0.008	300 (≈ 90.8 µg/mL)	> 500	> 500	14.3	50.1 ± 1.1	–	–	–	N#Cc1cnn(-c2nnc(-c3ccccc3Cl)s2)c1N [Compound 9b]	approximately 10 times	–
0.056 ± 0.002	0.279 ± 0.035	300 (≈ 85.9 µg/mL)	> 500	> 500	11.6	56.1 ± 2.1	–	–	–	N#Cc1cnn(-c2nnc(-c3ccc(F)cc3)s2)c1N [Compound 9c]	approximately 10 times	–
0.011 ± 0.001	0.019 ± 0.003	300 (≈ 105 µg/mL)	> 500	> 500	26.7	73.4 ± 3.3	eight	more than 50 times	0.02 to 0.3	CCOC(=O)c1cnn(-c2nnc(-c3ccccc3Cl)s2)c1N [Compound 9f]	more than 20 times	> 10
0.082 ± 0.005	0.24 ± 0.017	300 (≈ 82.3 µg/mL)	> 500	> 500	38.5	77.9 ± 1	–	–	–	Cc1cc(C)n(-c2nnc(-c3ccc(F)cc3)s2)n1 [Compound 11c, 2-(3,5-dimethyl-1H-pyrazol-1-yl)-5-(4-fluorophenyl)-1,3,4-thiadiazole]	approximately 10 times	–
0.097 ± 0.018	0.223 ± 0.018	–	–	–	–	–	–	–	–	COc1ccc(CC(=O)NC(NC(=NC#N)Nc2cccc3ncccc23)C(C)(C)C)cc1OC (centres unmarked) [Compound A740003, N-(1-{[(cyanoimino)(5-quinolinylamino)methyl]amino}-2,2-dimethylpropyl)-2-(3,4-dimethoxyphenyl)acetamide]	–	–
